According to patent US7718686B2, “Imidazole variants as modulators of GABA receptor for the treatment of GI disorders” (AstraZeneca AB, priority 2004, dated 2010):

Target: T1, GABAB receptor (Homo sapiens, UniProt O75899+Q9UBS5)
T1 construct: expressed in transfected cells; host or cells: CHO-K1 (membranes)
Experiment: [35S]-GTPγS binding assay with GABA in the presence or absence of PAM
Format: biochemical
Conditions: log EC50 for GABA plotted against log concentration of the positive allosteric modulator; read-out: EC50 (potency of the positive allosteric modulator)
Description: [^35S]-GTPγS binding assays were performed at 30° C. for 45 min in membrane buffer (100 mM NaCl, 5 mM MgCl2, 1 mM EDTA, 50 mM HEPES, pH 7.4) containing 0.025 μg/μl of membrane protein (prepared from the cell lines described above) with 0.01% bovine serum albumin (fatty acid free), 10 μM GDP, 100 μM DTT and 0.53 nM [^35S]-GTPγS (Amersham-Pharmacia Biotech) in a final volume of 200 μl. Non-specific binding was determined in the presence of 20 μM GTPγS. The reaction was started by the addition of GABA at concentration between 1 mM and 0.1 mM in the presence or absence of the required concentration of PAM. The reaction was terminated by addition of ice-cold wash buffer (50 mM Tris-HCl, 5 mM MgCl2, 50 mM NaCl, pH 7.4) followed by rapid filtration under vacuum through Printed Filtermat A glass fiber filters (Wallac) (0.05% PEI treated) using a Micro 96 Harvester (Skatron Instruments). The filters were dried for 30 min at 50° C., then a paraffin scintillant pad was melted onto the filters and the bound radioactivity was determined using a 1450 Microbeta Trilux (Wallac) scintillation counter.
GABA dose-response curves in the presence and absence of test compounds were constructed using the 4-parameter logistic equation, y=ymax+((ymin−ymax)/1+(x/C)^D) where C=EC50 and D=slope factor.
The potency of PAM in GTPγS assays was determined by plotting the log EC50 for GABA against the log concentration of the positive allosteric modulator in the presence of which the measurement was performed.

T1 sequence (Q9UBS5 15-961 limits assumed): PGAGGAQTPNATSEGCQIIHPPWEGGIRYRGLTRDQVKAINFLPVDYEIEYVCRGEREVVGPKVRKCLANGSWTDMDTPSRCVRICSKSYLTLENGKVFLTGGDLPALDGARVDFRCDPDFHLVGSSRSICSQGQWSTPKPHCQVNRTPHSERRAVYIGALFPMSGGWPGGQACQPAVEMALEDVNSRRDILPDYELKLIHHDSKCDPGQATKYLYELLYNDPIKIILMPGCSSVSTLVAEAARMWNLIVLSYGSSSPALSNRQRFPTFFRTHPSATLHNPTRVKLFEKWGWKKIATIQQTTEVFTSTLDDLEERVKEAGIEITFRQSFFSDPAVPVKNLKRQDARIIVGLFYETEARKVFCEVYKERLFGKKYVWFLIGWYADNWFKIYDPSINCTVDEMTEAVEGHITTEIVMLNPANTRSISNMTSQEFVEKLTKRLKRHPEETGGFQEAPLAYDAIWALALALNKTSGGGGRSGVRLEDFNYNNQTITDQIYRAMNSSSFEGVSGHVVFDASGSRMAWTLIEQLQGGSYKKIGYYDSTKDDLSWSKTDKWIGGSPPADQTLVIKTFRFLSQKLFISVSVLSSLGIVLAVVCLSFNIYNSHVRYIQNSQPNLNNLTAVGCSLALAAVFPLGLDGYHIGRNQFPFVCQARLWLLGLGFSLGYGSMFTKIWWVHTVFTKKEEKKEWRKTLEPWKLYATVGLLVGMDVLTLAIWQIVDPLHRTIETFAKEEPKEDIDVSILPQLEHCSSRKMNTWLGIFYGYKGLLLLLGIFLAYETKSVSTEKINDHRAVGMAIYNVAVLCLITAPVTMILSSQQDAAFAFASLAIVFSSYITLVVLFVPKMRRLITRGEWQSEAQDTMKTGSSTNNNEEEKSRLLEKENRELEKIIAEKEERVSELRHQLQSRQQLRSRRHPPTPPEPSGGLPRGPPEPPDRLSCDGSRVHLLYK
T1 sequence (O75899 42-941): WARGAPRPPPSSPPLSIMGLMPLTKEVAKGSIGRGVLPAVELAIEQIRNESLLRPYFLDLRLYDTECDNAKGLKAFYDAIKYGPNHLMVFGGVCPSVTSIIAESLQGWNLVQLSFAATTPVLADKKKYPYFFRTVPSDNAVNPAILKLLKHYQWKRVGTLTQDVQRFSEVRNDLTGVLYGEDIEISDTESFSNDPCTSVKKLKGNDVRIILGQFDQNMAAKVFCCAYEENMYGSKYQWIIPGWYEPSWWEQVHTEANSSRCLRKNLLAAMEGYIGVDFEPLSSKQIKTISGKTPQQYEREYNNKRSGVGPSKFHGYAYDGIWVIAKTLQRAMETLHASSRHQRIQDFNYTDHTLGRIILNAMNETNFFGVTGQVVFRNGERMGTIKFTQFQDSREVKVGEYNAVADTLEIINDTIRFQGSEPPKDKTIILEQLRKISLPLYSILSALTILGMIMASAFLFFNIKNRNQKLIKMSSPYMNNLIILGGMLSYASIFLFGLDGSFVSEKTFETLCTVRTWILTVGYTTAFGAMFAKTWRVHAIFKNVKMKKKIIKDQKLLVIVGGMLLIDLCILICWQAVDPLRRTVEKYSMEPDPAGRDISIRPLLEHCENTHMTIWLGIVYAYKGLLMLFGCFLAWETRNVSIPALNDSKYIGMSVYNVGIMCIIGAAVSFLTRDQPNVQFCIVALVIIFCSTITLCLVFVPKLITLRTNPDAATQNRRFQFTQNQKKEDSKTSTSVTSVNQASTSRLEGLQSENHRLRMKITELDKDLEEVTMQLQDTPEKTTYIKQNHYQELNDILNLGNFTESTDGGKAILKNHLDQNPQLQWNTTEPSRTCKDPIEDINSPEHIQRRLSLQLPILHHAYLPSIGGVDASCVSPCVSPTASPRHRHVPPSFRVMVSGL

Row | EC50 | Structure (SMILES)
1 | 600 nM | CCOC(=O)c1c(NC(=O)C(CC)c2ccccc2)nc(SC)n1-c1ccccc1 (stereo not shown) [1H-imidazole-5-carboxylic acid, 2-(methylthio)-4-[(1-oxo-2-phenylbutyl)amino]-1-phenyl-, ethyl ester]
2 | 2300 nM | CCOC(=O)c1c(NC(=O)c2ccc(Cl)c(Cl)c2)nc(SC)n1Cc1ccccc1 [1H-imidazole-5-carboxylic acid, 4-[(3,4-dichlorobenzoyl)amino]-2-(methylthio)-1-(phenylmethyl)-, ethyl ester]
3 | 300 nM | COCC(C)(C)OC(=O)c1c(NC(=O)C2COc3ccccc3O2)nc(OC)n1-c1ccccc1 (stereo not shown) [2-methoxy-1,1-dimethylethyl 4-[(2,3-dihydro-1,4-benzodioxin-2-ylcarbonyl)amino]-2-methoxy-1-phenyl-1H-imidazole-5-carboxylate]
4 | 300 nM | CCCCC(C)(C)OC(=O)c1c(NC(=O)c2ccc(Cl)cc2)nc(SC)n1-c1ccccc1 [1,1-dimethylpentyl 4-[(4-chlorobenzoyl)amino]-2-(methylthio)-1-phenyl-1H-imidazole-5-carboxylate]
